Assay results taken from patent publication US8541445B2, “Pyrazolopyridines” (Vertex Pharmaceuticals Incorporated, priority 2009, dated 2013).

Tests used:
Type in all cases: biochemical
PKC theta kinase = PKC theta kinase (Homo sapiens, UniProt Q04759); assay: PKC theta kinase inhibition, coupled-enzyme NADH absorbance assay; settings: 18 nM PKC theta kinase, 240 μM ATP, 30° C.
Experimental: An assay buffer solution was prepared which consisted of 100 mM HEPES (pH 7.5), 10 mM MgCl2, 25 mM NaCl, 0.1 mM EDTA and 0.01% Brij. An enzyme buffer containing reagents to final assay concentrations of 0.00001% Triton X-100, 200 μg/mL Phosphatidylserine, 20 μg/mL Diacylglycerol, 360 μM NADH, 3 mM phosphoenolpyruvate, 70 μg/mL pyruvate kinase, 24 μg/mL lactate dehydrogenase, 2 mM DTT, 100 μM substrate peptide (ERMRPRKRQGSVRRRV SEQ ID NO. 1) and 18 nM PKC theta kinase was prepared in assay buffer. To 60 μL of this enzyme buffer, in a 384 well plate, was added 2 μL of VRT stock solution in DMSO. The mixture was allowed to equilibrate for 10 mins at 30° C. The enzyme reaction was initiated by the addition of 5 μL stock ATP solution prepared in assay buffer to a final assay concentration of 240 μM. Initial rate data was determined from the rate of change of absorbance at 340 nm (corresponding to stoichiometric consumption of NADH) using a Molecular Devices Spectramax plate reader (Sunnyvale, Calif.) over 15 mins at 30° C. For each Ki determination 12 data points covering the VRT concentration range of 0-20 μM were obtained in duplicate (DMSO stocks were prepared from an initial 10 mM VRT stock with subsequent 1:2 serial dilutions). Ki values were calculated from initial rate data by non-linear regression using the Prism software package (Prism 4.0a, Graphpad Software, San Diego, Calif.).

PKC delta kinase = PKC delta kinase (Homo sapiens, UniProt Q05655); assay: PKC delta kinase inhibition, coupled-enzyme NADH absorbance assay; settings: 46 nM PKC delta kinase, 150 μM ATP, 30° C.
Chain of PKC delta kinase (Q05655 whole entry): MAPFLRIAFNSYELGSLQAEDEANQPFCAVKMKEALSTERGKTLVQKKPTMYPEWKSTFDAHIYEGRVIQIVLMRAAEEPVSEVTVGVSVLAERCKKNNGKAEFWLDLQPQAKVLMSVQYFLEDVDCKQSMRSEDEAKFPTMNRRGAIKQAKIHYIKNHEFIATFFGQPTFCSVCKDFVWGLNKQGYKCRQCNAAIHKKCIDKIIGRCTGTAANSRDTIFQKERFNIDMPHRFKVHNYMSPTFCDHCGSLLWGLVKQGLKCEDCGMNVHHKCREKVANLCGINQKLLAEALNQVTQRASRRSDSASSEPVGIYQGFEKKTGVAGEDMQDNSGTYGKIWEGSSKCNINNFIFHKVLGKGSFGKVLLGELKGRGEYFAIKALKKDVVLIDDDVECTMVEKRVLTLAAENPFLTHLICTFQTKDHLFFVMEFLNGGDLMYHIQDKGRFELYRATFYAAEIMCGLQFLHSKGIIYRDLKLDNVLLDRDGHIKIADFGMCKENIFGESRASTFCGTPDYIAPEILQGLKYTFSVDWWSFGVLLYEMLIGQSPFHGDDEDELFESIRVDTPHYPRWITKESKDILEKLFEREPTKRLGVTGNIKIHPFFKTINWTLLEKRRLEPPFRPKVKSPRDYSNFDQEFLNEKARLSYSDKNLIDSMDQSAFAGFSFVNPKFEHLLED
Experimental: An assay buffer solution was prepared which consisted of 100 mM HEPES (pH 7.5), 10 mM MgCl2, 25 mM NaCl, 0.1 mM EDTA and 0.01% Brij. An enzyme buffer containing reagents to final assay concentrations of 0.002% Triton X-100, 200 μg/mL Phosphatidylserine, 20 μg/mL Diacylglycerol, 360 μM NADH, 3 mM phosphoenolpyruvate, 70 μg/mL pyruvate kinase, 24 μg/mL lactate dehydrogenase, 2 mM DTT, 150 μM substrate peptide (ERMRPRKRQGSVRRRV SEQ ID NO. 2) and 46 nM PKC delta kinase was prepared in assay buffer. To 16 μL of this enzyme buffer, in a 384 well plate, was added 1 μL of VRT stock solution in DMSO. The mixture was allowed to equilibrate for 10 mins at 30° C. The enzyme reaction was initiated by the addition of 16 μL stock ATP solution prepared in assay buffer to a final assay concentration of 150 μM. Initial rate data was determined from the rate of change of absorbance at 340 nm (corresponding to stoichiometric consumption of NADH) using a Molecular Devices Spectramax plate reader (Sunnyvale, Calif.) over 15 mins at 30° C. For each Ki determination 12 data points covering the VRT concentration range of 0-20 μM were obtained in duplicate (DMSO stocks were prepared from an initial 10 mM VRT stock with subsequent 1:2 serial dilutions). Ki values were calculated from initial rate data by non-linear regression using the Prism software package (Prism 4.0a, Graphpad Software, San Diego, Calif.).

PKC alpha kinase = PKC alpha kinase (Homo sapiens, UniProt P17252); assay: PKC alpha kinase inhibition, coupled-enzyme NADH absorbance assay; settings: 4.5 nM PKC alpha kinase, 130 μM ATP, 100 μM CaCl2, 30° C.
Experimental: An assay buffer solution was prepared which consisted of 100 mM HEPES (pH 7.5), 10 mM MgCl2, 25 mM NaCl, 0.1 mM EDTA, 100 μM CaCl2 and 0.01% Brij. An enzyme buffer containing reagents to final assay concentrations of 0.002% Triton X-100, 100 μg/mL Phosphatidylserine, 20 μg/mL Diacylglycerol, 360 μM NADH, 3 mM phosphoenolpyruvate, […], 24 μg/mL lactate dehydrogenase, 2 mM DTT, 150 μM substrate peptide (RRRRRKGSFKRKA SEQ ID NO. 3) and 4.5 nM PKC alpha kinase was prepared in assay buffer. To 16 μL of this enzyme buffer, in a 384 well plate, was added 1 μL of VRT stock solution in DMSO. The mixture was allowed to equilibrate for 10 mins at 30° C. The enzyme reaction was initiated by the addition of 16 μL stock ATP solution prepared in assay buffer to a final assay concentration of 130 μM. Initial rate data was determined from the rate of change of absorbance at 340 nm (corresponding to stoichiometric consumption of NADH) using a Molecular Devices Spectramax plate reader (Sunnyvale, Calif.) over 15 mins at 30° C. For each Ki determination 12 data points covering the VRT concentration range of 0-20 μM were obtained in duplicate (DMSO stocks were prepared from an initial 10 mM VRT stock with subsequent 1:2 serial dilutions). Ki values were calculated from initial rate data by non-linear regression using the Prism software package (Prism 4.0a, Graphpad Software, San Diego, Calif.).

Chain of PKC theta kinase (Q04759 whole entry): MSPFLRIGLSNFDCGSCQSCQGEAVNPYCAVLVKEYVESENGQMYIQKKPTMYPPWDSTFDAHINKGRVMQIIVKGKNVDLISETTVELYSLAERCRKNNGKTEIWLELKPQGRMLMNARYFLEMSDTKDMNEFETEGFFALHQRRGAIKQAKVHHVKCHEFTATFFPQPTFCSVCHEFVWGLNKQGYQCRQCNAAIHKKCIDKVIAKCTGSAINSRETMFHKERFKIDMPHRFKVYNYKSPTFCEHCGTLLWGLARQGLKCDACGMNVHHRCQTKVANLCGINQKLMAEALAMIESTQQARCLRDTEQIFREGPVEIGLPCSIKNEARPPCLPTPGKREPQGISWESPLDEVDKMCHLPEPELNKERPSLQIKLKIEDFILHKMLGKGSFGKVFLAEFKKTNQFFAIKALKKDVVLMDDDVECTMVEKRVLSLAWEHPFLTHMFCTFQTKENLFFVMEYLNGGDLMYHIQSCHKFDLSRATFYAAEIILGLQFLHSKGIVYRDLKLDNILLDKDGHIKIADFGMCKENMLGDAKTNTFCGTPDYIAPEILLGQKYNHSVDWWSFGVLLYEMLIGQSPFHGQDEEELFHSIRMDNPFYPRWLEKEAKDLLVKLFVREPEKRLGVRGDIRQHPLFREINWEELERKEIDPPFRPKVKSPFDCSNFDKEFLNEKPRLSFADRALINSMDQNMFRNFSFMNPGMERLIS

SMILES | Ki (PKC theta kinase) | Ki (PKC delta kinase) | Ki (PKC alpha kinase)
Cc1sc(-c2ccnc3[nH]ncc23)nc1C(C)(C)CN [Compound 4, 2-methyl-2-(5-methyl-2-(1H-pyrazolo[3,4-b]pyridin-4-yl)thiazol-4-yl)propan-1-amine] | < 500 nM | < 500 nM | < 2800 nM
CCC(C)(C#N)c1csc(-c2ccnc3[nH]nc(Cl)c23)n1 (stereo not drawn) [Compound 8] | < 50 nM | < 500 nM | < 2800 nM
CCC(C)(CN)c1csc(-c2ccnc3[nH]nc(Cl)c23)n1 (stereo not drawn) [Compound 11] | < 50 nM | < 50 nM | < 500 nM
CC1(CN)CCCc2sc(-c3ccnc4[nH]ncc34)nc21 (stereo not drawn) [Compound 12, (4-methyl-2-(1H-pyrazolo[3,4-b]pyridin-4-yl)-4,5,6,7-tetrahydrobenzo[d]thiazol-4-yl)methanamine] | < 500 nM | < 2800 nM | > 1250 nM
CCC(C)(CN)c1csc(-c2ccnc3[nH]ncc23)c1 (stereo not drawn) [Compound 13, 2-(5-(1H-pyrazolo[3,4-b]pyridin-4-yl)thiophen-3-yl)-2-methylbutan-1-amine] | < 50 nM | < 500 nM | < 500 nM
CCC(C)(CN)c1ccsc1-c1ccnc2[nH]ncc12 (stereo not drawn) [Compound 14] | < 500 nM | > 2000 nM | > 1250 nM
CCC(C#N)n1cc(-c2ccnc3[nH]ncc23)cn1 (stereo not drawn) [Compound 15, 2-(4-(1H-pyrazolo[3,4-b]pyridin-4-yl)-1H-pyrazol-1-yl)butanenitrile] | < 500 nM | < 2800 nM | > 1250 nM
NCCn1cc(-c2ccnc3[nH]ncc23)cn1 [Compound 16] | < 500 nM | < 2800 nM | > 1250 nM
CCC(CN)n1cc(-c2ccnc3[nH]ncc23)cn1 (stereo not drawn) [Compound 17, 2-(4-(1H-pyrazolo[3,4-b]pyridin-4-yl)-1H-pyrazol-1-yl)butan-1-amine] | < 2800 nM | < 2800 nM | > 1250 nM

Continued, values first:

Ki (PKC theta kinase) | Ki (PKC delta kinase) | Ki (PKC alpha kinase) | SMILES
< 500 nM | < 2800 nM | > 1250 nM | N#CCc1csc(-c2ccnc3[nH]ncc23)n1 [Compound 1, 2-(2-(1H-pyrazolo[3,4-b]pyridin-4-yl)thiazol-4-yl)ethanenitrile]
< 50 nM | < 500 nM | < 2800 nM | CC(C)(C#N)c1csc(-c2ccnc3[nH]ncc23)n1 [Compound 2, 2-(2-(1H-pyrazolo[3,4-b]pyridin-4-yl)thiazol-4-yl)-2-methyl propanenitrile]
< 50 nM | < 500 nM | < 2800 nM | CC(C)(CN)c1csc(-c2ccnc3[nH]ncc23)n1 [Compound 3, 2-(2-(1H-pyrazolo[3,4-b]pyridin-4-yl)thiazol-4-yl)-2-methylpropan-1-amine]
< 50 nM | < 500 nM | < 500 nM | CCC(C#N)c1csc(-c2ccnc3[nH]ncc23)n1 (stereo not drawn) [Compound 5]
< 50 nM | < 500 nM | < 2800 nM | CCC(C)(C#N)c1csc(-c2ccnc3[nH]ncc23)n1 (stereo not drawn) [Compound 6]
< 50 nM | < 500 nM | < 500 nM | CCC(C#N)(CC)c1csc(-c2ccnc3[nH]ncc23)n1 [Compound 7]
< 50 nM | < 500 nM | > 1250 nM | CCC(CN)c1csc(-c2ccnc3[nH]ncc23)n1 (stereo not drawn) [Compound 9]
< 50 nM | < 500 nM | < 2800 nM | CCC(C)(CN)c1csc(-c2ccnc3[nH]ncc23)n1 (stereo not drawn) [Compound 10]
